“Also recorded” adds a separate entry of the source. Where two headings read alike, the source gives them in different places.
Tests used:
[1] = system: patients with resistant hypertension; assay: PRECISION phase 3 trial: ambulatory blood pressure monitoring (ABPM); format: in vivo, human; details: for 24 h ambulatory DBP, placebo-corrected decrease / 24 h ambulatory SBP, placebo-corrected decrease: end of part 1 (week 4)
Method: (§1) A single, randomized study with three sequential treatment parts was designed. The study design addressed both the 4-week placebo-controlled efficacy of 12.5 and 25 mg aprocitentan (Part 1) and the durability of its effects in long-term active treatment with 25 mg aprocitentan for a further 32 weeks (Part 2) followed by a 12-week placebo-controlled withdrawal period with patients re-randomized to 25 mg or placebo (Part 3) (see for example Danaietash P et al; Identifying and treating resistant hypertension in PRECISION—a randomized long-term clinical trial with Aprocitentan. J Clin Hypertension 2022 (in press). Patients with uncontrolled BP (measured as unattended automated office BP) despite the use of three or more antihypertensive medications for at least 1 year were screened. They were switched to a single-tablet triple fixed combination antihypertensive therapy for at least 4 weeks before entering a single-blind placebo run-in period. The 4-week placebo run-in period further excluded placebo responders. The randomization period consisted of 3 sequential parts: • 1) a 4-week double-blind part with aprocitentan 12.5 mg, 25 mg, or placebo (1:1:1 ratio); • 2) a 32-week single-blind part with aprocitentan 25 mg; and • 3) a 12-week randomized withdrawal part with aprocitentan 25 mg or placebo (1:1 ratio).
ABPM is performed over a 24-hour period with the Mobil-O-Graph NG device at baseline, and Weeks 4, 36, and 40. Systolic BP and diastolic BP are measured every 20 minutes from 06:00-23:00 and every 30 minutes from 23:00-06:00. Monitoring is initiated between 06:00 and 11:00.
(§2) • Part 1: Double-blind, randomized parallel-group and placebo-controlled and lasts for 4 weeks. Subjects received (1:1:1 ratio), 25 or 12.5 mg aprocitentan, or placebo. • Part 2: Single-blind and single-arm, lasts for 32 weeks. All subjects received aprocitentan 25 mg. • Part 3: Double-blind withdrawal. All subjects completing part 2 and entering part 3 are re-randomized (1:1 ratio) to either aprocitentan 25 mg or placebo.
Other secondary efficacy endpoints include • changes from baseline to Week 4 and from DB-WD baseline to Week 40 in mean trough sitting diastolic blood pressure (SiDBP) measured as uAOBP. • and changes in systolic/diastolic BP measured by ABPM, including changes from baseline to Week 4 of DB treatment in 24-h mean SBP and DBP, changes from baseline to Week 4 in daytime and night-time mean SBP and DBP, changes from DB-WD baseline (Week 36) to Week 40 in 24-h mean SBP and DBP, and changes from DB-WD baseline (Week 36) to Week 40 in daytime and night-time mean SBP and DBP.

[2] = system: patients with resistant hypertension; assay: PRECISION phase 3 trial: urine albumin-creatinine ratio (UACR); format: in vivo, human
Method: as §1, §2
In a population with difficult-to control hypertension (mean age of 62 years, obesity [69.3% of subjects], >50% with diabetes mellitus, 22% with CKD stage 3-4), evaluation of UACR is important. […] The geometric mean UACR at baseline was 26.6 mg/g in the overall population. At Week 4, placebo-corrected reductions in UACR of 30% and 34% with aprocitentan 12.5 mg and 25 mg were noted, respectively.

[3] = system: patients with resistant hypertension; assay: PRECISION phase 3 trial: safety assessments; format: in vivo, human; details: for tolerability: 12.5 mg and 25 mg, up to 48 weeks; for treatment-emergent adverse events (TEAEs), patients: 4-week double-blind period, placebo 19.4%; for edema/fluid retention, patients: 4-week part 1, placebo 2.1%; for discontinuation from study treatment due to an adverse event: first 4 weeks double-blind, placebo 0.8%; for estimated plasma volume increase: placebo 0.51%
Method: as §1, §2
Safety assessments include (treatment emergent) adverse events (TEAEs) including TEAEs leading to premature discontinuation of study treatment; adverse events of special interest (AESIs): hepatic disorders, anemia (or hemodilution), edema/fluid retention, and decompensation/aggravation of heart failure; treatment-emergent major adverse cardiovascular events (MACEs)/MACE-plus defined as cardiovascular death, non-fatal myocardial infarction (MI), or non-fatal stroke, or hear filure leading to hospitalization confirmed by the Central Adjudication Committee (CAC); as well as vital signs, body weight, clinical laboratory assessments, and 12-lead electrocardiograms.

[4] = system: subjects having essential hypertension; details: cited from earlier work
[5] = system: rat models of hypertension; details: cited from earlier work
[6] = in comparison to corresponding alkylated derivatives; cited from earlier work
[7] = Black or African Americans, baseline to Week 4
[8] = part 3, after 4 weeks of withdrawal (week 40), aprocitentan 25 mg
[9] = preliminary data, subjects with SGLT-2 inhibitor plus standardized antihypertensive background therapy, small sample size

NS(=O)(=O)Nc1ncnc(OCCOc2ncc(Br)cn2)c1-c1ccc(Br)cc1 [aprocitentan, {5-(4-bromo-phenyl)-6-[2-(5-bromo-pyrimidin-2-yloxy)-ethoxy]-pyrimidin-4-yl}-sulfamide]
difference 25 mg versus 12.5 mg in LS mean BP reduction with ABPM (night-time SBP) [1, 7]: up to −5.90 mmHg | further decrease in night-time SBP with 25 mg compared to 12.5 mg [1, 7]: > 100% | 24 h ambulatory DBP, placebo-corrected decrease ([1]; aprocitentan 12.5 mg): −4.3 mm Hg | 24 h ambulatory SBP, placebo-corrected decrease ([1]; aprocitentan 12.5 mg): −4.2 mm Hg | placebo-corrected SBP lowering effect during the daytime ([1]; aprocitentan 12.5 mg, week 4): −3.8 mm Hg | placebo-corrected SBP lowering effect during the night time ([1]; aprocitentan 12.5 mg, week 4): −5.1 mm Hg | 24 h ambulatory DBP, placebo-corrected decrease ([1]; aprocitentan 25 mg): −5.8 mm Hg | 24 h ambulatory SBP, placebo-corrected decrease ([1]; aprocitentan 25 mg): −5.9 mm Hg | placebo-corrected SBP lowering effect during the daytime ([1]; aprocitentan 25 mg, week 4): −5.3 mm Hg | 24 h ambulatory DBP increase with placebo compared with aprocitentan [1, 8]: 6.8 mm Hg | 24 h ambulatory SBP increase with placebo compared with aprocitentan [1, 8]: 6.5 mm Hg | reduction in UACR ([2]; aprocitentan 12.5 mg, subjects with CKD stage 3-4): −26% | reduction in UACR ([2]; aprocitentan 12.5 mg, subjects with baseline microalbuminuria): −43% | UACR reduction during part 2 ([2]; aprocitentan 25 mg, single-blind part 2): maintained; also recorded: sustained | reduction in UACR ([2]; aprocitentan 25 mg, subjects with CKD stage 3-4): −45% | reduction in UACR ([2]; aprocitentan 25 mg, subjects with baseline microalbuminuria): −45% | antiproteinuric effect (UACR change) ([2]; patients with chronic kidney disease stage 3-4): −46% | antiproteinuric effect (UACR change) ([2]; patients with eGFR of 60 mL/min per 1.73 m^2 or higher): −26% | antiproteinuric effect [2, 9]: improved antiproteinuric effect | tolerability [3]: generally well tolerated | tolerability ([3]; listed as Aprocitentan): generally well tolerated | treatment-emergent adverse events (TEAEs), patients ([3]; aprocitentan 12.5 mg): 27.6% | edema/fluid retention, patients ([3]; aprocitentan 12.5 mg): 9.1% | discontinuation from study treatment due to an adverse event ([3]; aprocitentan 12.5 mg): 2.5% | estimated plasma volume increase ([3]; aprocitentan 12.5 mg, part 1): 10.5% | haemoglobin concentration change ([3]; aprocitentan 12.5 mg, part 1, placebo −0.4): -8.0 g/L | treatment-emergent adverse events (TEAEs), patients ([3]; aprocitentan 25 mg): 36.7% | edema/fluid retention, patients ([3]; aprocitentan 25 mg): 18.4% | oedema or fluid retention, patients ([3]; aprocitentan 25 mg, 12-week part 3, placebo 1.3%): 2.6% | oedema or fluid retention, patients ([3]; aprocitentan 25 mg, 32-week part 2): 18.2% | discontinuation from study treatment due to an adverse event ([3]; aprocitentan 25 mg): 2.0% | admission to hospital for heart failure, patients ([3]; aprocitentan 25 mg, part 1 (two of 245)): 0.8% | patients who discontinued due to oedema or fluid retention ([3]; aprocitentan 25 mg, part 1, of 245 patients): one | estimated plasma volume increase ([3]; aprocitentan 25 mg, part 1): 11.2% | admission to hospital for heart failure, patients ([3]; aprocitentan 25 mg, part 2 (six of 704)): 0.9% | patients who discontinued due to oedema or fluid retention ([3]; aprocitentan 25 mg, part 2, of 704 patients): five | admission to hospital for heart failure, patients ([3]; aprocitentan 25 mg, part 3 (two of 310), placebo 0.3%): 0.6% | patients who discontinued due to oedema or fluid retention ([3]; aprocitentan 25 mg, part 3, of 310 patients): one | patients who discontinued treatment due to edema/fluid retention ([3]; aprocitentan 25 mg, parts 1-3, <1%): seven | bodyweight ([3]; both aprocitentan doses, part 1, decrease with placebo): moderate increase | serious edema/fluid retention adverse events ([3]; both on aprocitentan 25 mg, <1%): Two | edema/fluid retention events mild to moderate in intensity ([3]; entire study duration): > 95% | patients who developed edema/fluid retention at one time point ([3]; entire study duration): Approximately 30% | hepatotoxicity ([3]; in vivo): No signs | NT-proBNP and MR-proANP ([3]; part 1, stabilisation in part 2, reversal in part 3): Slight increases | eGFR ([3]; part 1 versus placebo): decreased slightly | decrease of hemoglobin value from baseline to week 36 [3, 9]: smaller decrease | tolerability ([4]; across all four doses (5, 10, 25, 50 mg)): well tolerated | cases of increased liver enzymes above three times the upper limit of the normal range ([4]; aprocitentan 5 mg group): one | cases of peripheral edema ([4]; aprocitentan 25 mg group): two | cases of peripheral edema ([4]; aprocitentan 50 mg group): two | mean body weight change from baseline ([4]; aprocitentan 5 and (10) mg groups): remained unchanged | mean body weight increase from baseline ([4]; aprocitentan 25 and 50 mg groups): 0.4 kg | pharmacological effect in combination with ACE inhibitors such as enalapril ([5]; in certain models): synergistic | pharmacological effect in combination with angiotensin receptor blockers such as valsartan ([5]; rat, in vivo): synergistic | pharmacological effect in combination with calcium channel blockers such as amlodipine ([5]; rat, in vivo): additive | clearance in vivo [6]: much shorter | half-life in vivo [6]: much longer
